Measurements reported in US20250313560A1, “Novel bicyclic benzylamido pyridine derivatives as SOS1 inhibitors” (Boehringer Ingelheim International GmbH, priority 2024, published 2025).

What was measured:
P450 3A4 = P450 3A4 (Homo sapiens (Human), UniProt P08684); test: Cytochrome P450 isoenzyme inhibition assay (P450 3A4, midazolam); format: in vitro ADME; settings: human liver microsomes, Midazolam as substrate; read-out: CYP3A4 inhibition IC50
Method in brief: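 Midazolam (5 μM) hydroxylation by human liver microsomes (0.1 mg/ml) in 0.1 M TRIS with 5 mM MgCl2, started with 1 mM NADPH. Five compound concentrations in duplicate, e.g. top 50 μM with 1:4 dilutions. Metabolite quantified by LC-MS/MS against internal standard; IC50 from inhibition relative to no-compound control.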

CYP3A4 = CYP3A4 (Homo sapiens (Human), UniProt P08684); test: Mechanism-based inhibition of CYP3A4 assay (MBI 3A4); format: in vitro ADME; settings: human, human liver microsomes, probe midazolam 15 μM (hydroxy-midazolam formation), midazolam substrate, hydroxy-midazolam formation after 30 min preincubation relative to 0 min, read-out: MBI inhibition % ctrl. [%] with MDZ
Chain of CYP3A4 (P08684 whole entry): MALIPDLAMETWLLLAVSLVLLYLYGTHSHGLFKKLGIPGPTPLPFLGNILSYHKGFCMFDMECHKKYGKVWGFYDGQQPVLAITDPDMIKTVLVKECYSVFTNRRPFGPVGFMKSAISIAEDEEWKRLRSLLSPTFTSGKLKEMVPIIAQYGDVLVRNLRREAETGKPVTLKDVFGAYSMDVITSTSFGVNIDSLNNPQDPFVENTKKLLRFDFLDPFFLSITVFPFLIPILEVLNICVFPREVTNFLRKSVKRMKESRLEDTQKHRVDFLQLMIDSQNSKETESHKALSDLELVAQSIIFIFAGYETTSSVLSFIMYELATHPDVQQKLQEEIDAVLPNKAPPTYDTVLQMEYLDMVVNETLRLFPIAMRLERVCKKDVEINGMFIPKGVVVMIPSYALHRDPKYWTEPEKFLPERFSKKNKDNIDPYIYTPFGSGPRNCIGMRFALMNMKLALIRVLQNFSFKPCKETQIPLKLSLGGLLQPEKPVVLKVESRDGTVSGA
Method in brief: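 Human liver microsomes (0.2 mg/mL) were preincubated with compound at 0, 5 or 25 μM plus 1 mM NADPH for 0, 10 or 30 min, then diluted 1:10 and incubated 10 min with 15 μM midazolam. Hydroxy-midazolam was measured by LC/MS-MS; readout is formation after 30 min relative to 0 min preincubation (%).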

SOS1 and KRAS G12C = SOS1 and KRAS G12C (Homo sapiens (Human), UniProt Q07889); test: KRAS::SOS1 AlphaScreen binding assay (KRAS G12C); settings: average of at least two measurements
Chain of SOS1 and KRAS G12C (Q07889 564-1049, stated change not applied): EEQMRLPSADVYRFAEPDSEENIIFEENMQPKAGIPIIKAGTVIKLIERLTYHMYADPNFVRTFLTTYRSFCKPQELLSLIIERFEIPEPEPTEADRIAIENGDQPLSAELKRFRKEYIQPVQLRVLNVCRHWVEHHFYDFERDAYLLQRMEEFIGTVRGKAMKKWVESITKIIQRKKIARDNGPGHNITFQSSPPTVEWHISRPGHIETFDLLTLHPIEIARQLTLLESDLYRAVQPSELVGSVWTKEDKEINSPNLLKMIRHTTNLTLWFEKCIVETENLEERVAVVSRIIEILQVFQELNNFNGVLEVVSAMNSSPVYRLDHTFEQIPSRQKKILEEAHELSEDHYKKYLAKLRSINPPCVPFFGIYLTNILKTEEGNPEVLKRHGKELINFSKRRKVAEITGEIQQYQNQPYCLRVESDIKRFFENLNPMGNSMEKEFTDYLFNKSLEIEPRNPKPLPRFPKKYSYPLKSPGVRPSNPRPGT

[1] = tested on: ERK phosphorylation in NCI-H358 SOS2 KO cells (KRAS G12C); test: Erk phosphorylation assay; format: cell-based, human; settings: Homo sapiens, NCI-H358, NCI-H358 SOS2 KO cells, EGF stimulated; average of at least two measurements; read-out: pERK IC50
Method in brief: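 NCI-H358 SOS2 KO cells (KRAS G12C) in DMEM/2% FBS were pretreated 50 min with compound, then stimulated with EGF (approx. 8 ng/mL) for 10-15 min. pERK1/2 (Thr202/Tyr204) measured in lysates by AlphaLISA SureFire; IC50 from variable-slope fit, averaged over at least two measurements.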

human hepatocytes = test: Metabolic stability in human hepatocytes; settings: 1 μM test compound, 50% human serum, percentage of liver blood flow
SOS1 and KRAS G12D = SOS1 and KRAS G12D (Homo sapiens (Human), UniProt Q07889); test: KRAS::SOS1 AlphaScreen binding assay (KRAS G12D); settings: average of at least two measurements
Chain of SOS1 and KRAS G12D (Q07889 564-1049, stated change not applied): as above

Chain of P450 3A4 (P08684 whole entry): as the sequence (P08684 whole entry) above

| SMILES | IC50 (P450 3A4) [µM] | inhibition at 30 min (CYP3A4) [%] | IC50 (SOS1 and KRAS G12C) [nM] | IC50 [1] [µM] | Hepatic clearance - QH[%] in human hepatocytes (human hepatocytes) [%] | IC50 (SOS1 and KRAS G12D) [nM] |
| --- | --- | --- | --- | --- | --- | --- |
| C[C@@H](NC(=O)c1cc(N2CCC(N3CCCC3)CC2)c2ncnn2c1)c1cccc(C(F)(F)F)c1F [Example E48] | > 50 | 92 | 69 | 0.082 | 27 | 60 |
| C[C@@H](NC(=O)c1cc(N2CCC(NCC(C)(C)O)CC2)c2ncnn2c1)c1cccc(C(F)(F)F)c1F [Example E50] | > 50 | 83 | 49 | 0.22 | 15 | 42 |
| C[C@H](CO)NC1CCN(c2cc(C(=O)N[C@H](C)c3cccc(C(F)(F)F)c3F)cn3ncnc23)CC1 [Example E54] | > 50 | 85 | 39 | 0.186 | 12 | 31 |
| C[C@@H](NC(=O)c1cc(N2CCC(N(C)CCO)CC2)c2ncnn2c1)c1cccc(C(F)(F)F)c1F [Example E55] | > 50 | 83 | 69 | 0.397 | <4 | 54 |
| C[C@@H](NC(=O)c1cc([C@H]2CC[C@H](N3CCC[C@H](O)C3)CC2)c2ncnn2c1)c1cccc(C(F)(F)F)c1F [Example E67] | > 50 | 95 | 33 | 0.046 | 10 | 33 |
| C[C@@H](NC(=O)c1cc([C@H]2CC[C@H](N3CCC[C@@H](O)C3)CC2)c2ncnn2c1)c1cccc(C(F)(F)F)c1F [Example E68] | > 50 | 91 | 36 | 0.116 | 12 | 27 |
| C[C@@H](NC(=O)c1cc(N2CCC(N3CCC[C@H]3CO)CC2)c2ncnn2c1)c1cccc(C(C)(F)F)c1F [Example E72] | > 50 | 98 | 33 | 0.092 | 21 | 32 |
| C[C@@H](NC(=O)c1cc(N2CCC(N3CC[C@@H](CO)C3)CC2)c2ncnn2c1)c1cccc(C(C)(F)F)c1F [Example E73] | > 50 | 103 | 64 | 0.136 | 24 | 64 |
| C[C@@H](NC(=O)c1cc(N2CCC3(CCCN3C)CC2)c2ncnn2c1)c1cccc(C(C)(F)F)c1F [Example E74] | > 50 | 89 | 26 | 0.206 | 8 | 21 |
| CO[C@@H]1CCN(C2CCN(c3cc(C(=O)N[C@H](C)c4cccc(C(F)(F)F)c4F)cn4cnnc34)CC2)C1 [Example E75] | > 50 | 99 | 65 | 0.408 | 9 | 60 |
| C[C@@H](NC(=O)c1cc(N2CCC3(CCCN3C)CC2)c2nncn2c1)c1cccc(C(F)(F)F)c1F [Example E77] | > 50 | 88 | 27 | 0.202 | <4 | 22 |
| Cc1nc2c(N3CCC4(CCCN4)CC3)cc(C(=O)N[C@H](C)c3cccc(C(F)(F)F)c3F)cn2n1 [Example E78] | > 50 | 103 | 43 | 0.223 | 5 | 41 |
| Cc1nnc2c(N3CCC4(CCCN4C)CC3)cc(C(=O)N[C@H](C)c3cccc(C(F)(F)F)c3F)cn12 [Example E79] | > 50 | 90 | 20 | 0.106 | 8 | 14 |
| Cc1c([C@@H](C)NC(=O)c2cc(N3CCC4(CCCN4C)CC3)c3nnc(C)n3c2)cccc1C(F)(F)F [Example E80] | > 50 | 88 | 37 | 0.213 | <4 | 27 |
| C[C@@H](NC(=O)c1cc(C2=CCC(N3CCC[C@H](O)C3)CC2)c2nncn2c1)c1cccc(C(F)F)c1F (stereo partly drawn) [Example E82] | > 50 | 92 | 20 | 0.09 | 5 | 15 |
| Cc1nc2c([C@H]3CC[C@H](N4CCCC4)CC3)cc(C(=O)N[C@H](C)c3cccc(C(F)F)c3F)cn2n1 [Example E84] | > 50 | 103 | 38 | 0.174 | 10 | 37 |
| Cc1nc2c([C@H]3CC[C@H](N4CCC[C@H](O)C4)CC3)cc(C(=O)N[C@H](C)c3cccc(C(F)F)c3F)cn2n1 [Example E85] | > 50 | 102 | 37 | 0.158 | 14 | 24 |

Next, values leading:

| IC50 (P450 3A4) [µM] | inhibition at 30 min (CYP3A4) [%] | IC50 (SOS1 and KRAS G12C) [nM] | IC50 [1] [µM] | Hepatic clearance - QH[%] in human hepatocytes (human hepatocytes) [%] | IC50 (SOS1 and KRAS G12D) [nM] | SMILES |
| --- | --- | --- | --- | --- | --- | --- |
| > 50 | 106 | 65 | 0.149 | 15 | 52 | C[C@@H](NC(=O)c1cc(N2CCC(N3CC[C@@H](O)C3)CC2)c2ncnn2c1)c1cccc(C(F)(F)F)c1F [Example E57] |
| > 50 | 96 | 32 | 0.122 | 15 | 32 | C[C@@H](NC(=O)c1cc([C@H]2CC[C@H](N3CCC[C@@H](O)C3)CC2)c2ncnn2c1)c1cccc(C(F)F)c1F [Example E58] |
| > 50 | 99 | 42 | 0.166 | 15 | 41 | C[C@@H](NC(=O)c1cc([C@H]2CC[C@H](N3CC[C@](C)(O)C3)CC2)c2ncnn2c1)c1cccc(C(F)F)c1F [Example E59] |
| > 50 | 90 | 21 | 0.29 | 26 | 20 | C[C@@H](NC(=O)c1cc([C@H]2CC[C@H](N3C[C@H](F)C[C@@H]3CO)CC2)c2ncnn2c1)c1cccc(C(F)F)c1F [Example E60] |
| > 50 | 98 | 22 | 0.315 | 9 | 15 | C[C@@H]1C[C@@H](O)CN1[C@H]1CC[C@H](c2cc(C(=O)N[C@H](C)c3cccc(C(F)F)c3F)cn3ncnc23)CC1 [Example E62] |
| > 50 | 94 | 31 | 0.089 | 23 | 27 | C[C@@H](NC(=O)c1cc(C2=CCC(N3CCC[C@H](O)C3)CC2)c2ncnn2c1)c1cccc(C(F)F)c1F (stereo partly drawn) [Example E63] |
| > 50 | 102 | 90 | 0.165 | 38 | 93 | C[C@@H](NC(=O)c1cc([C@]2(O)CC[C@@H](N3CC[C@@H](F)C3)CC2)c2ncnn2c1)c1cccc(C(F)F)c1F [Example E65] |
| > 50 | 81 | 74 | 0.152 | 32 | 79 | C[C@@H](NC(=O)c1cc([C@]2(O)CC[C@@H](N3CC[C@H](F)C3)CC2)c2ncnn2c1)c1cccc(C(F)F)c1F [Example E66] |
| > 50 | 85 | 28 | 0.218 | <4 | 23 | C[C@@H](NC(=O)c1cc([C@H]2CC[C@H](N3CC[C@H](O)C3)CC2)c2ncnn2c1)c1cccc(C(F)(F)F)c1F [Example E69] |
| > 50 | 94 | 79 | 0.196 | 7 | 79 | C[C@@H](NC(=O)c1cc([C@]2(O)CC[C@@H](N3CC[C@H](F)C3)CC2)c2ncnn2c1)c1cccc(C(F)(F)F)c1F [Example E71] |
| > 50 | 93 | 25 | 0.258 | 15 | 24 | C[C@@H](NC(=O)c1cc([C@H]2CC[C@H](N3CCC[C@H](O)C3)CC2)c2nncn2c1)c1cccc(C(F)F)c1F [Example E81] |
